Activity calls are given as the source filed them. No rule for the calls is given here.
Columns and labels:
[1] = biological target: Endothelial PAS domain-containing protein 1 (Homo sapiens) (UniProt Q99814); experiment: potency against HIF reporters across cell lines – luminescence, panel, selectivity assay for HIF-2a inhibitor project, dose response (AID 651581); details: human cell HIF reporter
[2] = biological target: Hypoxia-inducible factor 1-alpha (Homo sapiens) (UniProt Q16665); experiment: as above; details: human cell HIF reporter, HIF-1a
Hypoxia-inducible factor 1-alpha (Homo sapiens), sequence (Q16665 whole entry, looked up): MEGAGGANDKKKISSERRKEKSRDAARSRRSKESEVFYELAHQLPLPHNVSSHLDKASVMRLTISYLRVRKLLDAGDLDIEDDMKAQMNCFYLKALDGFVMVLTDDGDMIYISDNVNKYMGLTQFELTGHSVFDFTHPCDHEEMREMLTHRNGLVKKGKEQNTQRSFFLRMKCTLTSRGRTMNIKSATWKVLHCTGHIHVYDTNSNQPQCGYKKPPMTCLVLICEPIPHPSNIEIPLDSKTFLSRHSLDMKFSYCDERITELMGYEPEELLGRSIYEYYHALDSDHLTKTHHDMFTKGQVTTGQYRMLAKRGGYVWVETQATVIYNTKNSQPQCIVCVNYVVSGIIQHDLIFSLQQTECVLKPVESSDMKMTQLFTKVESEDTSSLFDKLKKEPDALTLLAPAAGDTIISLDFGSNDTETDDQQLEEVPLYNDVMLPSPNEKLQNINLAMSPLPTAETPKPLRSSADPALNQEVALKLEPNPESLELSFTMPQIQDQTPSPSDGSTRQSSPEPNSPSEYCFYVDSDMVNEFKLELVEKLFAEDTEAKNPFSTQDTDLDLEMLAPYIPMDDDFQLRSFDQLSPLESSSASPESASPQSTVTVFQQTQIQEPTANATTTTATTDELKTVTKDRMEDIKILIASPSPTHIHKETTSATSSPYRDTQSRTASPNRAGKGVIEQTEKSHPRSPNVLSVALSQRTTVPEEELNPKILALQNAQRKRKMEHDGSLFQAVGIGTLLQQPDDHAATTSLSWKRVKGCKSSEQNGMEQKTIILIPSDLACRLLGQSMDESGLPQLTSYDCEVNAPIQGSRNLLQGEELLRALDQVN

SMILES	IC50 ([1]; HIF-2a PANC, mean of runs)	IC50 ([1]; HIF-2a PANC, run 1)	IC50 ([1]; HIF-2a PANC, run 2)	IC50 ([1]; HIF-2a, mean of runs)	IC50 ([1]; HIF-2a, run 1)	IC50 ([1]; HIF-2a, run 2)	IC50 ([2]; run 1)	IC50 ([2]; run 2)	IC50 ([2]; mean of runs)
O=Cc1ccc(-c2cccs2)s1	> 99 µM (inactive)	> 99 µM	> 99 µM	5.55 µM	5.49 µM	5.62 µM	> 99 µM	> 99 µM	–
Cc1c(CCC(=O)N[C@@H](CC(C)C)C(=O)O)c(=O)oc2cc3oc4c(c3cc12)CCCC4	2.77 µM	2.58 µM	2.96 µM	1.61 µM	1.61 µM	1.61 µM	2.65 µM	4.05 µM	inactive
CSC(SC)=C(C#N)C(=O)c1ccccc1	–	> 99 µM	77 µM	6.18 µM	6.56 µM	5.8 µM	21.3 µM	31.1 µM	26.2 µM
Nc1nc2ccc(S(=O)(=O)c3ccc4nc(N)sc4c3)cc2s1	> 99 µM (inactive)	> 99 µM	> 99 µM	inactive	14.7 µM	14.7 µM	71.7 µM	> 99 µM	–
O=C1C=C(c2ccc(Cl)cc2)C(=O)N1Nc1ccccc1	inactive	29.9 µM	75.9 µM	5.66 µM	5.69 µM	5.63 µM	22.8 µM	28.9 µM	25.8 µM
CC(=O)N(C(C)=O)c1ccc(Oc2ccc(Oc3ccc(N(C(C)=O)C(C)=O)cc3)cc2)cc1	1.51 µM	1.86 µM	1.15 µM	–	> 99 µM	1.58 µM	12.2 µM	20.3 µM	inactive
O=C1C=CC(=O)N1c1cccc(-c2ccccc2)c1	–	> 99 µM	58.5 µM	8.09 µM	7.96 µM	8.22 µM	26.2 µM	36.6 µM	31.4 µM
C/C(=N\OCc1cccc(C(=O)O)c1)c1ccc(Cl)cc1	> 99 µM (inactive)	> 99 µM	> 99 µM	–	< 10 µM	5.87 µM	> 99 µM	> 99 µM	–
O=C(Nc1ccc(Cl)cc1Cl)c1cccc(N2C(=O)C=CC2=O)c1	–	> 99 µM	28.1 µM	8.1 µM	7.79 µM	8.42 µM	47.8 µM	34.5 µM	41.1 µM
COC(=O)COc1ccc(-c2nccc(-c3ccc(Br)cc3)n2)cc1	–	6.31 µM	> 99 µM	7.51 µM	7.55 µM	7.47 µM	> 99 µM	> 99 µM	–
O=c1[nH]c2ccc(Br)cc2c(=O)o1	47.5 µM	36.4 µM	58.6 µM	inactive	19.3 µM	20 µM	> 99 µM	20 µM	–
COc1ccc(CNC(=O)CCc2c(C)nc3cc(-c4ccccc4OC)nn3c2C)cc1	–	> 99 µM	11.8 µM	9.3 µM	10.1 µM	8.49 µM	26.8 µM	6.7 µM	inactive
COCCn1c(C)cc(C(=O)CSc2nnc3ccccn23)c1C	inactive	81.3 µM	31 µM	7.43 µM	7.46 µM	7.41 µM	28.9 µM	26.2 µM	27.5 µM
Cc1ccc(C(C)C)c(OCc2ccc(C(=O)N/N=C/c3ccc(C(=O)O)cc3)cc2)c1	0.378 µM	0.507 µM	0.248 µM	0.45 µM	0.421 µM	0.479 µM	> 99 µM	> 99 µM	–
O=C(O)c1cc(N/N=C/c2ccc3c(c2)OCCO3)ccc1Cl	> 99 µM (inactive)	> 99 µM	> 99 µM	–	< 30 µM	5.03 µM	45.8 µM	> 99 µM	–
NNC(=O)COc1ccc(-c2nccc(-c3ccc(F)cc3)n2)cc1	2.37 µM	2.39 µM	2.34 µM	2.66 µM	2.56 µM	2.75 µM	3.37 µM	1.1 µM	inactive
Cc1nc2cc(-c3ccccc3)nn2c(C)c1CCC(=O)NC(C)c1ccc2c(c1)OCCO2 (stereo unspecified)	2.4 µM	2.9 µM	1.91 µM	3.26 µM	3.59 µM	2.92 µM	3.84 µM	44.7 µM	24.3 µM
CC1(C)CC[C@]2(C(=O)O)CC[C@]3(C)C(=CC[C@@H]4[C@@]5(C)CC[C@H](O[C@@H]6O[C@H](C(=O)O)[C@@H](O)[C@H](O[C@@H]7OC[C@H](O)[C@H](O)[C@H]7O)[C@H]6O)C(C)(C)[C@@H]5CC[C@]43C)[C@@H]2C1	–	> 99 µM	16.2 µM	inactive	14.3 µM	14.4 µM	15.4 µM	15.7 µM	inactive

Source: PubChem BioAssay AID651581 (Sanford-Burnham Center for Chemical Genomics, 2012)
